Laboratory results published in patent US10550113B2, “2-phenyl-3H-imidazo[4,5-B]pyridine derivates useful as inhibitors of mammalian tyrosine kinase ROR1 activity” (Kancera AB, priority 2015, dated 2020).

Experiments:
[1] = test system: PBMC from CLL patients; assay: CellTiter-Blue cell viability assay, cell toxicity in PBMC from CLL patients; assay type: cell-based; conditions: Homo sapiens, 50 000 cells/well, cultured 24, 48 and 72 h (time of the IC50 not stated), % cytotoxicity vs 0.2% DMSO
Method: (§1) Method for Measurement of Cell Toxicity
(§2) The CellTiter-Blue® Cell Viability Assay provides a homogeneous, fluorometric method for estimating the number of viable cells present in multi-well plates. The assay uses the indicator dye resazurin to measure the metabolic capacity of cells. Viable cells retain the ability to reduce resazurin into resorufin, which is highly fluorescent.
(§3) Stock solutions (10 or 100 mM in DMSO) of compounds were serially diluted 1:2 in 11 concentrations and 25 nL/well (100 mM stock) or 50 nL/well (10 mM stock) were acoustically dispensed in assay plates with an EDC acoustic dispenser. Final starting concentration in the assay was 20 μM (0.2% DMSO) or 100 μM (0.1% DMSO) for test compounds.
(§4) Peripheral blood mononuclear cells (PBMC) from CLL patients or healthy volunteers were seeded in assay plates (384-well black/clear, Greiner #781091) pre-dispensed with compounds, 25 μL/well, and cultured for 24, 48 and 72 h. The cell concentration was 50 000 cells/well for PBMC from CLL patients or healthy volunteers. After 24, 48 and 72 h culture, Celltiter Blue reagent was added (5 μL/well) and the plates were incubated for 2 h. The plates were read in an Envision fluorescence reader (PerkinElmer) with Ex544 nm/Em590 nm. Results were calculated as % cytotoxicity compared to background (cells treated with 0.2% DMSO).
(§5) Thus, IC50 values for cell toxicity in PBMC from CLL patients as well as healthy volunteers for some compounds of the invention are shown in Table 3.

[2] = CellTiter-Blue cell viability assay, cell toxicity in PBMC from healthy volunteers; assay type: cell-based; conditions: human, 50 000 cells/well, cultured 24, 48 and 72 h (time of the IC50 not stated), % cytotoxicity vs 0.2% DMSO
Method: as §1, §2, §3, §4, §5

For `CN(C)CCNC(=O)COc1ccc(-c2nc3c(NC4CCN(Cc5ccsc5)CC4)c(Cl)cnc3[nH]2)cc1` [Example 15, 2-[4-(6-chloro-7-{[1-(thiophen-3-ylmethyl)piperidin-4-yl]amino}-3H-imidazo[4,5-b]pyridin-2-yl)phenoxy]-N-[2-(dimethylamino)ethyl]acetamide], which IC50 [1] is on record?
Its IC50 is 0.79 µM.

What about the IC50 [2] of the same compound?
Its IC50 is 13.9 µM.

With `CN1CCC(Nc2c(Br)cnc3[nH]c(-c4ccc(OCC(=O)NC5CCCC5)cc4)nc23)CC1` [Example 259, 2-(4-{6-bromo-7-[(1-methylpiperidin-4-yl)amino]-3H-imidazo[4,5-b]pyridin-2-yl}phenoxy)-N-cyclopentylacetamide] as the compound, how does the IC50 [1] read?
Its IC50 is 0.033 µM.

And the IC50 [2]?
The IC50 was 11.1 µM.
